Results reported in the CATMoS acute toxicity set (Mansouri et al. 2021).
“And” between values parts separate entries of the source, which are not always exact repeats. Equal values may be shown once.

Assay: rat acute oral toxicity
Conditions: in vivo
Source text: […]The data set underlying the modeling effort for this project was initially compiled by NICEATM and U.S. EPA’s CCTE. Briefly, LD50 data were collected from rat acute oral systemic toxicity tests, including limit tests, ranges/confidence intervals, and discrete LD50 values. The full data set included 21,200 LD50 entries for 15,688 substances. […] Data were reviewed to ensure that LD50 values with obvious errors in the extracted data such as unit conversion errors (e.g., comma and decimal separator misplacements) were either fixed or removed. After this review, 16,209 LD50 values remained. Many of the chemicals represented had multiple LD50 entries, requiring that a single representative value per Chemical Abstracts Service Registry Number (CASRN) identifier be defined to facilitate modeling efforts. Based on ATWG feedback and to define the representative LD50 as a protective value while accounting for the distribution across multiple LD50s, the median of the lowest quartile was computed using only discrete LD50 values (omitting limit test data and range and confidence interval data). A detailed summary of the data compilation is available online on the NICEATM webpage dedicated to the collaborative modeling project (NTP 2020).
[…][…] For categorical designations, limit test and range/confidence interval LD50 data were integrated wherever possible. As such, the number of chemicals with end point values/calls varies across the modeling end points (Table 3) based on whether chemicals had representative LD50 values and/or other data. If a chemical had both, the representative value was used to determine categorical calls rather than limit test data. Some data were useable only for certain end points and categories depending on the thresholds. For example, ranges that spanned multiple hazard categories were considered only for the binary (very toxic/nontoxic) end points and omitted from rendering a determination for hazard category assignment.
[…]The final data set comprising 11,992 chemicals was split into training and evaluation sets […], respectively. This process was performed semirandomly by ordering chemicals based on the five end points (categorical and continuous LD50 values) and partitioning every fourth record into the evaluation set accordingly. This approach was taken to ensure an equivalent distribution of the LD50 values and the different hazard categories between the training and the evaluation sets without supervised sampling of the chemicals based on structures (Figure 1A). The sources of the chemical structures were also kept equivalent between the two sets, with chemical structures obtained from DSSTox, being the highest quality, representing over 75% of each set (Figure 1B).

CC(C)C1OCC=CCO1
LD50: 1000 mg/kg

CCNc1nc(Cl)nc(NC(C)C)n1
LD50: 1870 mg/kg

CCN(CC)C(=O)c1cccc(C)c1
LD50: 1950 mg/kg

CC(CC=O)CC(C)(C)C (stereo not given)
LD50: 3240 mg/kg

CNN
LD50: 32 mg/kg

CC1(C)[C@H](/C=C2\CCSC2=O)[C@@H]1C(=O)OCc1coc(Cc2ccccc2)c1
LD50: 650 mg/kg

CCCC(O)C(CC)CO (stereo not given)
LD50: 1400 mg/kg

CCCOC(C)=O
LD50: 9370 mg/kg

O=[N+]([O-])c1ccc(Cl)c([N+](=O)[O-])c1
LD50: 640 mg/kg

O=C(Cl)c1ccc(Cl)cc1
LD50: 3150 mg/kg

CCN(C(=O)N(CC)c1ccccc1)c1ccccc1
LD50: 781 mg/kg

CCCCC(Oc1ccc([N+](=O)[O-])cc1C=O)C(=O)O (stereo not given)
LD50: 500 mg/kg

O=Cc1ccc(-c2ccccc2)cc1
LD50: 1000 mg/kg

CN1CCCC1=O
LD50: 3910 mg/kg

COP(=O)(OC)O/C(C)=C/C(=O)N(C)C
LD50: 9 mg/kg

O=C(O)C=CC(=O)O
LD50: 708 mg/kg

Clc1ccc(C(Cl)Cl)cc1
LD50: 1910 mg/kg

CC(C)(C)OOC1(OOC(C)(C)C)CCCCC1
LD50: 13300 mg/kg

C1=CC2CCC1C2
LD50: 9580 mg/kg

CC1=C(C(=O)Nc2ccccc2)SCCO1
LD50: 430 mg/kg

C=CCOC(C)=O
LD50: 130 mg/kg

c1ccc(OCC2CO2)cc1 (stereo not given)
LD50: 2500 mg/kg

CCCCCCCCCCCC[N+](C)(C)[O-]
LD50: 1060 mg/kg

Cc1ccc([N+](=O)[O-])c(C)c1
LD50: 1690 mg/kg

O=C(O)C(F)(OC(F)(F)C(F)(F)C(F)(F)F)C(F)(F)F (stereo not given)
LD50: 1750 mg/kg

O=C(OC1CCCCC1)c1ccccc1O
LD50: 3030 mg/kg

O=P(OC(CCl)CCl)(OC(CCl)CCl)OC(CCl)CCl
LD50: 1850 mg/kg

ClC1=C(Cl)[C@]2(Cl)[C@@H]3[C@@H]4C[C@@H]([C@H]5O[C@@H]45)[C@@H]3[C@@]1(Cl)C2(Cl)Cl (single isomer, unassigned)
LD50: 24 mg/kg

C=CCOC(=O)C(=C)C
LD50: 70 mg/kg

O=C(O)c1ccccc1C(=O)Nc1cccc2ccccc12
LD50: 1770 mg/kg

CCCCCCCCCCCCN(CCCN)CCCN
LD50: 252 mg/kg

COP(=O)(OC)O/C(=C\Cl)c1cc(Cl)c(Cl)cc1Cl
LD50: 480 mg/kg

CCCCC=O
LD50: 4580 mg/kg

Clc1cc2c(c(Cl)c1Cl)Oc1c(cc(Cl)c(Cl)c1Cl)O2
LD50: 0.8 mg/kg

CC(O)CO (stereo not given)
LD50: 20000 mg/kg

CCc1cccc(CC)c1N
LD50: 1800 mg/kg

CCCCN=C=O
LD50: 360 mg/kg

CC(C)c1ccc2ccc(C(C)C)cc2c1
LD50: 4130 mg/kg

CO[Si](CCCNCCN)(OC)OC
LD50: 1900 mg/kg

CCCCN(CCCC)SN(C)C(=O)Oc1cccc2c1OC(C)(C)C2
LD50: 51 mg/kg

CC1(C)CC(=O)CC(C)(C#N)C1 (stereo not given)
LD50: 61.6 mg/kg

CCCCOCCOCCOC(C)=O
LD50: 6500 mg/kg

CNC(=S)NN
LD50: 14 mg/kg

Cc1ccccc1O
LD50: 121 mg/kg

Oc1cccc(O)c1
LD50: 301 mg/kg

OC(c1ccc(Cl)cc1)(c1ccc(Cl)cc1)C(Cl)(Cl)Cl
LD50: 575 mg/kg

O=C=Nc1ccc(OC(F)(F)F)cc1
LD50: 1520 mg/kg

Oc1cc(Cl)c(Cl)cc1Cl
LD50: 820 mg/kg

CC1OC(C)OC(C)OC(C)O1 (stereo not given)
LD50: 227 mg/kg

C=COCCCC
LD50: 10000 mg/kg

CC(C)(C)c1ccc(O)c(O)c1
LD50: 815 mg/kg

C=CNC=O
LD50: 1000 mg/kg

CCCOCCO
LD50: 3090 mg/kg

CN(C)C(=O)Nc1ccc(Cl)c(Cl)c1
LD50: 437 mg/kg

CCOC=O
LD50: 1850 mg/kg

CCCC(=O)Nc1ccc(OCC(O)CNC(C)C)c(C(C)=O)c1 (stereo not given)
LD50: 3200 mg/kg

CC(O)CCO (stereo not given)
LD50: 18600 mg/kg

CC(Cc1ccc(C(C)(C)C)cc1)CN1CC(C)OC(C)C1 (stereo not given)
LD50: 1670 mg/kg

O=C(O)CBr
LD50: 50 mg/kg

CCCCCCCCCCCCCC[N+](C)(C)CCCCCCCCCCCCCC
LD50: 930 mg/kg

CCOC(=O)CC(=O)C(F)(F)F
LD50: 765 mg/kg

CN=C=S
LD50: 55 mg/kg

NCCCOCCOCCOCCCN
LD50: 2850 mg/kg

CCCCCO
LD50: 2200 mg/kg

CCCCCC(=O)O
LD50: 3000 mg/kg

CCCCCCCO
LD50: 500 mg/kg

CNC(=O)ON=CC(C)(C)SC
LD50: 0.5 mg/kg

CN(C)C(=O)Nc1cccc(C(F)(F)F)c1
LD50: 1450 mg/kg

C#CCOC(=O)[C@@H](C)Oc1ccc(Oc2ncc(Cl)cc2F)cc1
LD50: 2230 mg/kg

CCCCCCCCCCCCCCCCCCOCCO
LD50: 1900 mg/kg

Clc1cccc(Cl)c1C(Cl)Cl
LD50: 1300 mg/kg

CCCCOC(=O)c1ccccc1
LD50: 735 mg/kg

CC(C)N(C(=O)CO)c1ccc(F)cc1
LD50: 474 mg/kg

O=C1C2(Cl)C3(Cl)C4(Cl)C(Cl)(Cl)C5(Cl)C3(Cl)C1(Cl)C5(Cl)C24Cl (stereo not given)
LD50: 91.3 mg/kg

CCOCn1c(-c2ccc(Cl)cc2)c(C#N)c(Br)c1C(F)(F)F
LD50: 560 mg/kg

CNC(=O)ON=C(C)SC
LD50: 14.7 mg/kg

CC(C)COC(=O)c1ccccc1C(=O)OCC(C)C
LD50: 10400 mg/kg

COP(=S)(OC)Oc1ccc([N+](=O)[O-])cc1Cl
LD50: 284 mg/kg

CC(COC(=O)c1ccccc1)OC(=O)c1ccccc1 (stereo not given)
LD50: 2660 mg/kg

O=C(O)C1CCC(C(=O)O)CC1 (stereo not given)
LD50: 1900 mg/kg

CCC(C)c1cc([N+](=O)[O-])cc([N+](=O)[O-])c1OC(=O)C=C(C)C (stereo not given)
LD50: 58 mg/kg

O=C(OCCOCCOC(=O)c1ccccc1)c1ccccc1
LD50: 2830 mg/kg

CC1OC(C)OC(C)O1 (stereo not given)
LD50: 1530 mg/kg

Cc1ccc(N)cc1C
LD50: 810 mg/kg

O=Cc1ccncc1
LD50: 2170 mg/kg

C=CC#N
LD50: 78 mg/kg

COCC(C)OC(C)=O (stereo not given)
LD50: 5160 mg/kg

CC1(C)CC(N)CC(C)(C)N1
LD50: 906 mg/kg

CCC(=O)OCc1ccccc1
LD50: 3300 mg/kg

CC(C)CN
LD50: 224 mg/kg

CCOc1ccc(CCCCCCC(C)C)cc1
LD50: 5600 mg/kg

CCCC(C)C1(CC)C(=O)N=C(O)NC1=O (stereo not given)
LD50: 52 mg/kg and 118 mg/kg

CCCCCCCCCCCCCCN(C)C
LD50: 1320 mg/kg

C=CCOC(=O)c1ccccc1C(=O)OCC=C
LD50: 656 mg/kg

CNC(=O)ON=C1C(Cl)C2CC(C#N)C1C2 (stereo not given)
LD50: 19 mg/kg

C=C(C)C(N)=O
LD50: 1650 mg/kg

c1ccc2ncccc2c1
LD50: 331 mg/kg

O=C(Nc1ccccc1)Nc1ccnc(Cl)c1
LD50: 4900 mg/kg

NNc1nncc2ccccc12
LD50: 173 mg/kg

CCN(CC)c1c([N+](=O)[O-])cc(C(F)(F)F)c(N)c1[N+](=O)[O-]
LD50: 3000 mg/kg

O=Cc1ccccn1
LD50: 566 mg/kg

Cc1ccccc1Cc1ccccc1
LD50: 3020 mg/kg

CNC(=O)ON=C(SC)C(=O)N(C)C
LD50: 2.5 mg/kg

O=C(C=Cc1ccccc1)OCc1ccccc1
LD50: 5380 mg/kg

CSCCC=O
LD50: 490 mg/kg

CC(C)C(=O)O
LD50: 266 mg/kg

CNC(=O)N(C)c1nnc(C(C)(C)C)s1
LD50: 640 mg/kg

CC(=O)CC(=O)Nc1ccccc1Cl
LD50: 4040 mg/kg

CC[C@H]1OC(=O)C[C@@H](O)[C@H](C)[C@@H](O[C@@H]2O[C@H](C)[C@@H](O)[C@H](N(C)C)[C@H]2O)[C@@H](CCN2C[C@H](C)C[C@H](C)C2)C[C@@H](C)C(=O)C=CC(C)=C[C@@H]1CO[C@@H]1O[C@H](C)[C@@H](O)[C@@H](OC)[C@H]1OC
LD50: 800 mg/kg

CCC(C)Nc1c([N+](=O)[O-])cc(C(C)(C)C)cc1[N+](=O)[O-] (stereo not given)
LD50: 1050 mg/kg

CCCC1CC(C)(OC(C)=O)CCO1 (stereo not given)
LD50: 4300 mg/kg

CCOC(=O)C(C)Oc1ccc(Oc2nc3ccc(Cl)cc3o2)cc1 (stereo not given)
LD50: 2360 mg/kg

NNC(N)=S
LD50: 9.16 mg/kg

CCN(CC)C(=O)N1CCN(C)CC1
LD50: 1380 mg/kg

CCOP(=S)(OCC)SCSCC
LD50: 1 mg/kg

CC(O)COC(C)CO (stereo not given)
LD50: 2280 mg/kg

O=c1nc(O)n(Cl)c(=O)n1Cl
LD50: 1670 mg/kg

CC=O
LD50: 661 mg/kg

CC(C)OC(=O)COc1ccc(Cl)cc1Cl
LD50: 375 mg/kg

CC(C)c1cccc(C(C)C)c1N
LD50: 3200 mg/kg
